Data as given in US8497075B2, “Methods of identifying a modulator that inhibits the binding between Epstein-Barr virus induced receptor 2 and cholesterol derived ligands” (Novartis AG, priority 2008, dated 2013).

Tests used:
Test in all cases: nuclear hormone receptor reporter gene assay
Type in all cases: cell-based
Details in all cases: concentrations up to 10 μM
ERa (NR3A1) = molecular target: T1, ERa (NR3A1) (Homo sapiens, UniProt P03372)
T1 sequence (P03372 1-595): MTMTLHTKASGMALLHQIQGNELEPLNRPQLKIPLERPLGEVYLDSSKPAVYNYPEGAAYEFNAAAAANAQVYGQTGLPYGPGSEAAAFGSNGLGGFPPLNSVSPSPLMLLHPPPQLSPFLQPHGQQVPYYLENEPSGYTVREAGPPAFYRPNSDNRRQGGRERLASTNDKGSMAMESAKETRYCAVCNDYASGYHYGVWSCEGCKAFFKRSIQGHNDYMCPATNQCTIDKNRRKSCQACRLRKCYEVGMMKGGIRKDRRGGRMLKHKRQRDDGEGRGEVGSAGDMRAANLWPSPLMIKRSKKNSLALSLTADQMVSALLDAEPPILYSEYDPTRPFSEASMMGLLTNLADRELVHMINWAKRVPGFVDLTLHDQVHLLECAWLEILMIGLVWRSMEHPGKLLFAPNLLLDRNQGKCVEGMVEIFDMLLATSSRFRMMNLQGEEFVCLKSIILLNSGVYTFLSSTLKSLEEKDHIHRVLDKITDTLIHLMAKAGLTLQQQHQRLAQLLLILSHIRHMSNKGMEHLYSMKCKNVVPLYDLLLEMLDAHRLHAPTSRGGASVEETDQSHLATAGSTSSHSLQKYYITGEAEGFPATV
Excerpt: (§1) So far oxysterols have been noted to have various physiological activities namely regulate the expression of genes that participate in both sterol and fat metabolism, serve as substrates for the synthesis of bile acids, and are intermediates in the transfer of sterols from the periphery to the liver (Russell, D. W. (2000). Oxysterol biosynthetic enzymes. Biochim. Biophys. Acta 1529, 126-135). […] This included binding assays for 26 different GPCRs, functional assays of 9 different GPCRs, 40 kinase assays, as well as selected ion channels, proteases, transporter and enzyme assays.

FXRa (NR1H4) = molecular target: T2, FXRa (NR1H4) (Homo sapiens, UniProt Q96RI1)
T2 sequence (Q96RI1 1-486): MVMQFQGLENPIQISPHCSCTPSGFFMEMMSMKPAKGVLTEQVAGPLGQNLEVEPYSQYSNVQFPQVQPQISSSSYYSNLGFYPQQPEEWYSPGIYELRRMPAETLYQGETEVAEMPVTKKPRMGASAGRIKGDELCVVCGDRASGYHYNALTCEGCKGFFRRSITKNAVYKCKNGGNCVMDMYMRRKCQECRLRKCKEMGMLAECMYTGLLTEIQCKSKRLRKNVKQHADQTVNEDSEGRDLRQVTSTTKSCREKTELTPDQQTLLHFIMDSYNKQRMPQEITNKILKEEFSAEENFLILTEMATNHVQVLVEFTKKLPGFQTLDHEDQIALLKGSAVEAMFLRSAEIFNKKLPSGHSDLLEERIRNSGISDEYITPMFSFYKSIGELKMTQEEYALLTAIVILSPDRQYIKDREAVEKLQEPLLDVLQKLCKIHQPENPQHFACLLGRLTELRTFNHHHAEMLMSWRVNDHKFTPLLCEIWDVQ
Excerpt: as §1

GR (NR3C1) = molecular target: T3, GR (NR3C1) (Homo sapiens, UniProt P04150)
T3 sequence (P04150 1-777): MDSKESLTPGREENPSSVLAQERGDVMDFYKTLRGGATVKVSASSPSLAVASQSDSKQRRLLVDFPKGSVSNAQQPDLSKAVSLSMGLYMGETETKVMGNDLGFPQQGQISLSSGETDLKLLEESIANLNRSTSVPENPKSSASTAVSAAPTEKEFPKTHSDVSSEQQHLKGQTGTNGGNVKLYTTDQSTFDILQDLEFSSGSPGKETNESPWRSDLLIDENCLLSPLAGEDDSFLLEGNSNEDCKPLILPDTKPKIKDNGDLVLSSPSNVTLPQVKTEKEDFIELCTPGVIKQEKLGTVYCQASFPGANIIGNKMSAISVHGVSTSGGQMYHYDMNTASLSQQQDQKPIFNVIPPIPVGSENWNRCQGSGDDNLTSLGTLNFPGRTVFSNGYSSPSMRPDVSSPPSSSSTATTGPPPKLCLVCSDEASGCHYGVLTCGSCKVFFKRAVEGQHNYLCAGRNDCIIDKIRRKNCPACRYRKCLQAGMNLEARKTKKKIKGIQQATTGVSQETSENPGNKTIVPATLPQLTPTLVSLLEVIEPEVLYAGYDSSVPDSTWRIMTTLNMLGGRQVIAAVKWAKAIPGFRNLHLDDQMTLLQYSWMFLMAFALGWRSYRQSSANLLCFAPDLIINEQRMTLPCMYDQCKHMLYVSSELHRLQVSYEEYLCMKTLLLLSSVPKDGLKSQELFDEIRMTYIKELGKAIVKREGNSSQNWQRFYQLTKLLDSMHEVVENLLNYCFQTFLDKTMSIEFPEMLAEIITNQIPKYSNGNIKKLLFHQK
Excerpt: as §1

SXR (NR112) = molecular target: T4, SXR (NR112) (Homo sapiens, UniProt O75469)
T4 sequence (O75469 1-434): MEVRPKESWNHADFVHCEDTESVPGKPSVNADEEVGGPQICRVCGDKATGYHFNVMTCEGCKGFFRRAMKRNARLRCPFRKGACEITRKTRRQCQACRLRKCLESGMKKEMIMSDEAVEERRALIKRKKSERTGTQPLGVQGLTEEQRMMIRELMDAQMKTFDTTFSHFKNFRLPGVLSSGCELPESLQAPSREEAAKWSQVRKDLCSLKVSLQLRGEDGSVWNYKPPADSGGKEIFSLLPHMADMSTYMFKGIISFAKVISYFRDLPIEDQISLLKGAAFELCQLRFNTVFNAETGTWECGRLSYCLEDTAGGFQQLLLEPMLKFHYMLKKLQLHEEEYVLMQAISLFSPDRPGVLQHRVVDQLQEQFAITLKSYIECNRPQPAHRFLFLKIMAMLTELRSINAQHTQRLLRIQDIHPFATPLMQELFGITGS
Excerpt: as §1

C[C@H](CCCC(C)(C)O)[C@H]1CC[C@H]2[C@@H]3[C@H](O)C=C4C[C@@H](O)CC[C@]4(C)[C@H]3CC[C@]12C [7a,25DHC, cholest-5-ene-3b,7a,25-triol]
did not activate: activation of ERa (ERa (NR3A1)) | activation of FXRa (FXRa (NR1H4)) | activation of GR (GR (NR3C1)) | activation of SXR (SXR (NR112))

CC(CO)CCC[C@@H](C)[C@H]1CC[C@H]2[C@@H]3[C@H](O)C=C4C[C@@H](O)CC[C@]4(C)[C@H]3CC[C@]12C (some centres unmarked) [7a,27DHC, cholest-5-ene-3b,7a,27-triol]
did not activate: activation of ERa (ERa (NR3A1)) | activation of FXRa (FXRa (NR1H4)) | activation of GR (GR (NR3C1)) | activation of SXR (SXR (NR112))
